Reference: patent US12544391B2, “CD73 inhibitors” (ORIC Pharmaceuticals, Inc., priority 2019, dated 2026)
pIC50: −log10 of the molar value.

Target: T1, CD73 (Homo sapiens, UniProt P21589)
T1 sequence (P21589 27-549): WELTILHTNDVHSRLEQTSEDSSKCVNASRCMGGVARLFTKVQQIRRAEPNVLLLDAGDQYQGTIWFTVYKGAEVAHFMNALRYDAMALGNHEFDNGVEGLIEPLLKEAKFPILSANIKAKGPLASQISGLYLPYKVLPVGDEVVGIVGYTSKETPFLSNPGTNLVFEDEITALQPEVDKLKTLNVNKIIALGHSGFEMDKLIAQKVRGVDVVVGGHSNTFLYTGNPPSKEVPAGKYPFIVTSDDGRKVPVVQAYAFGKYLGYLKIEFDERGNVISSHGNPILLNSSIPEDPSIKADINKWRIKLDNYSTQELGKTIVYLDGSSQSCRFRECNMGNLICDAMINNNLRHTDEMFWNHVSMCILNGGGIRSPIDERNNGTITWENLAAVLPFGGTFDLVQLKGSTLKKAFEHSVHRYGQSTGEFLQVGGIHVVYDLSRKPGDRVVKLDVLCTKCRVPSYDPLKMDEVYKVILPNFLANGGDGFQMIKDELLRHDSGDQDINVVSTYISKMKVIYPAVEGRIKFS
Assay: CD73 biochemical assay, Malachite Green detection of AMP hydrolysis
Conditions: CD73 320 pM, AMP 15 μM, Malachite Green readout
Description: Assay Reaction Conditions
• Assay Volume: 70 μl • Reaction Volume: 50 μl • CD73: 0.3208 nM • AMP: 15 μM • Assay Buffer: 2 5 mM Tris-HCL, pH 7.4, 0.01% Brij-35, 0.01% BSA, 5 mM MgCl2 Assay Procedure:
A clear 384 well plate was used in this assay.
Made dose titration of testing compounds in assay buffer, 10 points ½ log titrations in duplicates starting at 100 μM. Total volume for each well was 25 μl, with CD73 then added to each well for a final concentration of 320 pM. The solution was then incubated at RT for 15 min. 25 μl of AMP was added to each well for a final concentration of 15 μM, and then incubated at rt for 10 min. 10 μl of Malachite Green Reagent A was then added and allowed to incubate at rt for 10 min. 10 μl of Malachite Green Reagent B was then added and allowed to incubate at rt for 45 min. The absorbance for each sample was read on an Envision plate reader using excitation filter: Cy5 […].
The ability of the compounds disclosed herein to inhibit CD73 activity was quantified and the respective IC50 values were determined. Table 2 provides the biochemical IC50 values of compounds disclosed herein.

Compound | pIC50
O=c1[nH]c(COC[C@@](CO)(OC[C@H]2O[C@@H](c3ccc4c(NCC5CC5)nc(Cl)nn34)[C@H](O)[C@@H]2O)P(=O)(O)O)no1 [Example 44, ((S)-2-(((2R,3S,4R,5S)-5-(2-chloro-4-((cyclopropylmethyl)amino)pyrrolo[2,1-f][1,2,4]triazin-7-yl)-3,4-dihydroxytetrahydrofuran-2-yl)methoxy)-1-hydroxy-3-((5-oxo-4,5-dihydro-1,2,4-oxadiazol-3-yl)methoxy)propan-2-yl)phosphonic acid] | ≥ 9.30
COC[C@](CC(=O)O)(OC[C@H]1O[C@@H](c2ccc3c(NC4CCCC4)nc(Cl)nn23)[C@H](O)[C@@H]1O)P(=O)(O)O [Example 45, (R)-3-(((2R,3S,4R,5S)-5-(2-Chloro-4-(Cyclopentylamino)pyrrolo[2,1-f][1,2,4]triazin-7-yl)-3,4-dihydroxytetrahydrofuran-2-yl)methoxy)-4-methoxy-3-phosphonobutanoic acid] | ≥ 9.30
O=P(O)(O)[C@@](CO)(COCc1nn[nH]n1)OC[C@H]1O[C@@H](c2ccc3c(NCC4CCCC4)nc(Cl)nn23)[C@H](O)[C@@H]1O [Example 46, ((S)-1-((2H-tetrazol-5-yl)methoxy)-2-(((2R,3S,4R,5S)-5-(2-chloro-4-((cyclopentylmethyl)amino)pyrrolo[2,1-f][1,2,4]triazin-7-yl)-3,4-dihydroxytetrahydrofuran-2-yl)methoxy)-3-hydroxypropan-2-yl)phosphonic acid] | ≥ 9.30
COC[C@](OC[C@H]1O[C@@H](c2ccc3c(NC4CCCC4)nc(Cl)nn23)[C@H](O)[C@@H]1O)(C(=O)O)P(=O)(O)O [Example 47, (R)-2-(((2R,3S,4R,5S)-5-(2-chloro-4-(cyclopentylamino)pyrrolo[2,1-f][1,2,4]triazin-7-yl)-3,4-dihydroxytetrahydrofuran-2-yl)methoxy)-3-methoxy-2-phosphonopropanoic acid] | 7.00 to 9.00

More lines, now with the values ahead:

pIC50 | Compound
7.00 to 9.00 | O=P(O)(O)[C@](CO)(COCc1nn[nH]n1)OC[C@H]1O[C@@H](c2ccc3c(NCC4CCCC4)nc(Cl)nn23)[C@H](O)[C@@H]1O [Example 48, ((R)-1-((2H-tetrazol-5-yl)methoxy)-2-(((2R,3S,4R,5S)-5-(2-chloro-4-((cyclopentylmethyl)amino)pyrrolo[2,1-f][1,2,4]triazin-7-yl)-3,4-dihydroxytetrahydrofuran-2-yl)methoxy)-3-hydroxypropan-2-yl)phosphonic acid]
≥ 9.30 | O=P(O)(O)[C@@](CO)(COCc1nn[nH]n1)OC[C@H]1O[C@@H](c2ccc3c(NCC4CC4)nc(Cl)nn23)[C@H](O)[C@@H]1O [Example 49, ((S)-1-((2H-tetrazol-5-yl)methoxy)-2-(((2R,3S,4R,5S)-5-(2-chloro-4-((cyclopropylmethyl)amino)pyrrolo[2,1-f][1,2,4]triazin-7-yl)-3,4-dihydroxytetrahydrofuran-2-yl)methoxy)-3-hydroxypropan-2-yl)phosphonic acid]
9.00 to 9.30 | O=P(O)(O)[C@](CO)(COCc1nn[nH]n1)OC[C@H]1O[C@@H](c2ccc3c(NC4CCC4)nc(Cl)nn23)[C@H](O)[C@@H]1O [Example 50, ((R)-1-((2H-tetrazol-5-yl)methoxy)-2-(((2R,3S,4R,5S)-5-(2-chloro-4-(cyclobutylamino)pyrrolo[2,1-f][1,2,4]triazin-7-yl)-3,4-dihydroxytetrahydrofuran-2-yl)methoxy)-3-hydroxypropan-2-yl)phosphonic acid]
≥ 9.30 | O=P(O)(O)[C@@](CO)(COCc1nn[nH]n1)OC[C@H]1O[C@@H](c2ccc3c(NCC4CCC4)nc(Cl)nn23)[C@H](O)[C@@H]1O [Example 52, ((S)-1-((2H-tetrazol-5-yl)methoxy)-2-(((2R,3S,4R,5S)-5-(2-chloro-4-((cyclobutylmethyl)amino)pyrrolo[2,1-f][1,2,4]triazin-7-yl)-3,4-dihydroxytetrahydrofuran-2-yl)methoxy)-3-hydroxypropan-2-yl)phosphonic acid]
